The supplement of paper PMC11451515

System: P12-Ichikawa
Test: cell viability relative to DMSO control; higher = less cytotoxic
Details: 48 h
Summary of the method: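 NOMO1, SEM and P12-Ichikawa leukemia cells spent at least four passages adapting to each medium before use. They were seeded at 500 cells/well (NOMO1, SEM) or 1000 cells/well (P12-Ichikawa) in 5 μl in 1536-well plates and pin-dosed with library compounds in DMSO at 11 threefold steps from 47 μM down to 0.79 nM. After 48 h at 37°C, CellTiter-Glo One luminescence was read. Viability is reported as a percentage of the DMSO wells on each plate, with cell-free wells as background.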

[1] = HPLM + 10% dialyzed FBS, 0.000781 µM
[2] = HPLM + 10% dialyzed FBS, 0.00234 µM
[3] = HPLM + 10% dialyzed FBS, 0.00702 µM
[4] = HPLM + 10% dialyzed FBS, 0.0211 µM
[5] = HPLM + 10% dialyzed FBS, 0.0632 µM
[6] = HPLM + 10% dialyzed FBS, 0.19 µM
[7] = HPLM + 10% dialyzed FBS, 0.569 µM
[8] = HPLM + 10% dialyzed FBS, 1.71 µM
[9] = HPLM + 10% dialyzed FBS, 5.12 µM
[10] = HPLM + 10% dialyzed FBS, 15.4 µM
[11] = HPLM + 10% dialyzed FBS, 46.1 µM
[12] = RPMI 5 mM glucose + 10% FBS, 0.000781 µM
[13] = RPMI 5 mM glucose + 10% FBS, 0.00234 µM
[14] = RPMI 5 mM glucose + 10% FBS, 0.00702 µM
[15] = RPMI 5 mM glucose + 10% FBS, 0.0211 µM
[16] = RPMI 5 mM glucose + 10% FBS, 0.0632 µM
[17] = RPMI 5 mM glucose + 10% FBS, 0.19 µM
[18] = RPMI 5 mM glucose + 10% FBS, 0.569 µM
[19] = RPMI 5 mM glucose + 10% FBS, 1.71 µM
[20] = RPMI 5 mM glucose + 10% FBS, 5.12 µM
[21] = RPMI 5 mM glucose + 10% FBS, 15.4 µM
[22] = RPMI 5 mM glucose + 10% FBS, 46.1 µM
[23] = RPMI 5 mM glucose + 10% dialyzed FBS, 0.000781 µM
[24] = RPMI 5 mM glucose + 10% dialyzed FBS, 0.00234 µM
[25] = RPMI 5 mM glucose + 10% dialyzed FBS, 0.00702 µM
[26] = RPMI 5 mM glucose + 10% dialyzed FBS, 0.0211 µM
[27] = RPMI 5 mM glucose + 10% dialyzed FBS, 0.0632 µM
[28] = RPMI 5 mM glucose + 10% dialyzed FBS, 0.19 µM
[29] = RPMI 5 mM glucose + 10% dialyzed FBS, 0.569 µM
[30] = RPMI 5 mM glucose + 10% dialyzed FBS, 1.71 µM
[31] = RPMI 5 mM glucose + 10% dialyzed FBS, 5.12 µM
[32] = RPMI 5 mM glucose + 10% dialyzed FBS, 15.4 µM
[33] = RPMI 5 mM glucose + 10% dialyzed FBS, 46.1 µM

C[C@]12CC[C@@H]3c4ccc(O)cc4CC[C@H]3[C@@H]1C[C@@H](O)[C@@H]2O
cell viability [1]: 117% | cell viability [2]: 115% | cell viability [3]: 114% | cell viability [4]: 120% | cell viability [5]: 113% | cell viability [6]: 111% | cell viability [7]: 119% | cell viability [8]: 110% | cell viability [9]: 112% | cell viability [10]: 104% | cell viability [11]: 104% | cell viability [12]: 120% | cell viability [13]: 115% | cell viability [14]: 116% | cell viability [15]: 114% | cell viability [16]: 125% | cell viability [17]: 129% | cell viability [18]: 126% | cell viability [19]: 124% | cell viability [20]: 123% | cell viability [21]: 108% | cell viability [22]: 107% | cell viability [23]: 116% | cell viability [24]: 120% | cell viability [25]: 125% | cell viability [26]: 123% | cell viability [27]: 115% | cell viability [28]: 117% | cell viability [29]: 123% | cell viability [30]: 118% | cell viability [31]: 109% | cell viability [32]: 114% | cell viability [33]: 105%

CCN(CC)CCCCNc1ncc2c(n1)N(C)C(=O)N(c1c(Cl)c(OC)cc(OC)c1Cl)C2
cell viability [1]: 118% | cell viability [2]: 121% | cell viability [3]: 120% | cell viability [4]: 118% | cell viability [5]: 117% | cell viability [6]: 115% | cell viability [7]: 113% | cell viability [8]: 121% | cell viability [9]: 114% | cell viability [10]: 105% | cell viability [11]: 11.8% | cell viability [23]: 120% | cell viability [24]: 110% | cell viability [25]: 122% | cell viability [26]: 119% | cell viability [27]: 120% | cell viability [28]: 117% | cell viability [29]: 106% | cell viability [30]: 103% | cell viability [31]: 121% | cell viability [32]: 90.9% | cell viability [33]: 22.8%

COc1ccc(C2Sc3ccccc3N(CCN(C)C)C(=O)C2OC(C)=O)cc1 (stereo not drawn)
cell viability [1]: 102% | cell viability [2]: 115% | cell viability [3]: 103% | cell viability [4]: 108% | cell viability [5]: 112% | cell viability [6]: 121% | cell viability [7]: 112% | cell viability [8]: 102% | cell viability [9]: 109% | cell viability [10]: 112% | cell viability [11]: 93.9% | cell viability [12]: 101% | cell viability [13]: 112% | cell viability [14]: 110% | cell viability [15]: 108% | cell viability [16]: 104% | cell viability [17]: 112% | cell viability [18]: 110% | cell viability [19]: 107% | cell viability [20]: 99.8% | cell viability [21]: 103% | cell viability [22]: 98.3% | cell viability [23]: 122% | cell viability [24]: 108% | cell viability [25]: 108% | cell viability [26]: 112% | cell viability [27]: 113% | cell viability [28]: 112% | cell viability [29]: 110% | cell viability [30]: 109% | cell viability [31]: 104% | cell viability [32]: 105% | cell viability [33]: 92.8%

ClC1=CC\2=C(NC(=O)\C(=C2N[C@@H]3CN4CCC3CC4)C5=NC6=C([NH]5)C=CC=C6)C=C1
cell viability [1]: 110% | cell viability [2]: 117% | cell viability [3]: 112% | cell viability [4]: 113% | cell viability [5]: 112% | cell viability [6]: 104% | cell viability [7]: 56.8% | cell viability [8]: 11.9% | cell viability [9]: 8.98% | cell viability [10]: 10.4% | cell viability [11]: 18.9% | cell viability [12]: 102% | cell viability [13]: 120% | cell viability [14]: 113% | cell viability [15]: 120% | cell viability [16]: 122% | cell viability [17]: 55.9% | cell viability [18]: 19.6% | cell viability [19]: 13.1% | cell viability [20]: 11% | cell viability [21]: 9.4% | cell viability [22]: 14.9% | cell viability [23]: 116% | cell viability [24]: 122% | cell viability [25]: 119% | cell viability [26]: 112% | cell viability [27]: 116% | cell viability [28]: 95.8% | cell viability [29]: 45.1% | cell viability [30]: 14% | cell viability [31]: 12.5% | cell viability [32]: 12.4% | cell viability [33]: 16.4%

CCN(C(=O)C/1=C(O)/C2=C(C=CC=C2Cl)N(C)C1=O)C3=CC=CC=C3
cell viability [1]: 93.7% | cell viability [2]: 100% | cell viability [3]: 98.1% | cell viability [4]: 102% | cell viability [5]: 97.9% | cell viability [6]: 93.2% | cell viability [7]: 95.9% | cell viability [8]: 77.6% | cell viability [9]: 31.8% | cell viability [10]: 2.09% | cell viability [11]: 3.36% | cell viability [12]: 90.3% | cell viability [13]: 97% | cell viability [14]: 98.7% | cell viability [15]: 105% | cell viability [16]: 88.8% | cell viability [17]: 77.5% | cell viability [18]: 82.7% | cell viability [19]: 52.7% | cell viability [20]: 25.4% | cell viability [21]: 1.95% | cell viability [22]: 2.3% | cell viability [23]: 85.2% | cell viability [24]: 91.3% | cell viability [25]: 91.5% | cell viability [26]: 96.4% | cell viability [27]: 99.6% | cell viability [28]: 78.5% | cell viability [29]: 82.8% | cell viability [30]: 46.1% | cell viability [31]: 16.3% | cell viability [32]: 2.21% | cell viability [33]: 3.11%

Cc1csc(NC(=O)c2sc3nc4c(c(C(F)(F)F)c3c2N)CCC4)n1
cell viability [1]: 88.3% | cell viability [2]: 102% | cell viability [3]: 98.1% | cell viability [4]: 98% | cell viability [5]: 94.4% | cell viability [6]: 93.8% | cell viability [7]: 95% | cell viability [8]: 91.3% | cell viability [9]: 90.3% | cell viability [10]: 84.5% | cell viability [11]: 83.4% | cell viability [12]: 87.2% | cell viability [13]: 100% | cell viability [14]: 94% | cell viability [15]: 92.1% | cell viability [16]: 88.6% | cell viability [17]: 91.1% | cell viability [18]: 98.7% | cell viability [19]: 90.1% | cell viability [20]: 88.1% | cell viability [21]: 79.2% | cell viability [22]: 86.5% | cell viability [23]: 82.7% | cell viability [24]: 83.3% | cell viability [25]: 81.6% | cell viability [26]: 84.3% | cell viability [27]: 89.4% | cell viability [28]: 86.4% | cell viability [29]: 88.6% | cell viability [30]: 78.2% | cell viability [31]: 84.9% | cell viability [32]: 69.9% | cell viability [33]: 73.6%

COC1=CC=C(C=C1O)C/2=C/C(=O)C3=C(O2)C=C(O)C=C3O
cell viability [1]: 96.2% | cell viability [2]: 95.5% | cell viability [3]: 96.4% | cell viability [4]: 97% | cell viability [5]: 95.2% | cell viability [6]: 90.3% | cell viability [7]: 86.4% | cell viability [8]: 90.8% | cell viability [9]: 86.7% | cell viability [10]: 91.9% | cell viability [11]: 88.4% | cell viability [12]: 98% | cell viability [13]: 92.1% | cell viability [14]: 95.3% | cell viability [15]: 98.9% | cell viability [16]: 104% | cell viability [17]: 92.5% | cell viability [18]: 90.4% | cell viability [19]: 87.5% | cell viability [20]: 87.3% | cell viability [21]: 91.3% | cell viability [22]: 89.9% | cell viability [23]: 86.8% | cell viability [24]: 83.9% | cell viability [25]: 81.7% | cell viability [26]: 76.9% | cell viability [27]: 78.1% | cell viability [28]: 76.5% | cell viability [29]: 77.9% | cell viability [30]: 79.5% | cell viability [31]: 79.5% | cell viability [32]: 80.7% | cell viability [33]: 80.7%

O=C(Oc1ccc([N+](=O)[O-])cc1)N1CCC(C(O)(c2ccc3c(c2)OCO3)c2ccc3c(c2)OCO3)CC1
cell viability [1]: 90% | cell viability [2]: 95.5% | cell viability [3]: 90.2% | cell viability [4]: 98.7% | cell viability [5]: 92% | cell viability [6]: 99.4% | cell viability [7]: 102% | cell viability [8]: 91.4% | cell viability [9]: 93.6% | cell viability [10]: 79.3% | cell viability [11]: 69.3% | cell viability [12]: 91.8% | cell viability [13]: 85% | cell viability [14]: 90.3% | cell viability [15]: 99.3% | cell viability [16]: 91.3% | cell viability [17]: 91.9% | cell viability [18]: 99.3% | cell viability [19]: 90.3% | cell viability [20]: 68.5% | cell viability [21]: 93.7% | cell viability [22]: 93.1% | cell viability [23]: 75.9% | cell viability [24]: 88.5% | cell viability [25]: 86.3% | cell viability [26]: 88.6% | cell viability [27]: 90.2% | cell viability [28]: 90.3% | cell viability [29]: 86.4% | cell viability [30]: 91.8% | cell viability [31]: 73.5% | cell viability [32]: 91.1% | cell viability [33]: 84.9%
